Test results published in patent publication US9936701B2, “Herbicidal compounds” (Syngenta Participations AG, priority 2013, dated 2018).

Key:
[1] = test system: a variety of test species; test: Pre-emergence herbicidal activity (glasshouse, sprayed one day after sowing, evaluated after 13 days); type: in vivo; design: key: 5=total damage to plant; 0=no damage to plant; settings: application pre-emergence, rate 1000 g/Ha, scale 0-5
Protocol: Seeds of a variety of test species were sown in standard soil in pots. After cultivation for one day (pre-emergence) under controlled conditions in a glasshouse (at 24/16° C., day/night; 14 hours light; 65% humidity), the plants were sprayed with an aqueous spray solution derived from the formulation of the technical active ingredient in acetone/water (50:50) solution containing 0.5% Tween 20 (polyoxyethelyene sorbitan monolaurate, CAS RN 9005-64-5). The test plants were then grown in a glasshouse under controlled conditions (at 24/16° C., day/night; 14 hours light; 65% humidity) and watered twice daily. After 13 days, the test was evaluated (5=total damage to plant; 0=no damage to plant).

[2] = test system: a variety of test species; test: Post-emergence herbicidal activity (glasshouse, sprayed after 8 days cultivation, evaluated after 13 days); type: in vivo; design: key: 5=total damage to plant; 0=no damage to plant; settings: rate 1000 g/Ha, scale 0-5
Protocol: Seeds of a variety of test species were sown in standard soil in pots. After 8 days cultivation (post-emergence) under controlled conditions in a glasshouse (at 24/16° C., day/night; 14 hours light; 65% humidity), the plants were sprayed with an aqueous spray solution derived from the formulation of the technical active ingredient in acetone/water (50:50) solution containing 0.5% Tween 20 (polyoxyethelyene sorbitan monolaurate, CAS RN 9005-64-5). The test plants were then grown in a glasshouse under controlled conditions (at 24/16° C., day/night; 14 hours light; 65% humidity) and watered twice daily. After 13 days, the test was evaluated (5=total damage to plant; 0=no damage to plant).

| Structure (SMILES) | Pre-emergence herbicidal damage score, ABUTH [1] | Pre-emergence herbicidal damage score, ALOMY [1] | Pre-emergence herbicidal damage score, AMARE [1] | Pre-emergence herbicidal damage score, ECHCG [1] | Pre-emergence herbicidal damage score, SETFA [1] | Pre-emergence herbicidal damage score, ZEAMX [1] | ABUTH (Abutilon theophrasti) damage score, application post-emergence [2] | ALOMY (Alopecurus myosuroides) damage score, application post-emergence [2] | AMARE (Amaranthus retroflexus) damage score, application post-emergence [2] | ECHCG (Echinochloa crus-galli) damage score, application post-emergence [2] | SETFA (Setaria faberi) damage score, application post-emergence [2] | ZEAMX (Zea mays) damage score, application post-emergence [2] |
| --- | --- | --- | --- | --- | --- | --- | --- | --- | --- | --- | --- | --- |
| CC1=C(Cl)C(=O)N(c2cc(C(C)(C)C)on2)C1OC(=O)C(C)C (stereo not shown) [A76] | 5 | 4 | 5 | 4 | 4 | 3 | 5 | 5 | 5 | 5 | 5 | 4 |
| CC1=C(Cl)C(=O)N(c2cc(C(C)(C)C)on2)C1OC(=O)C(C)(C)C (stereo not shown) [A77] | 1 | 1 | 4 | 1 | 2 | 1 | 1 | 2 | 3 | 3 | 2 | 1 |
| CCSC(=O)OC1C(C)=C(Cl)C(=O)N1c1cc(C(C)(C)C)on1 (stereo not shown) [A78] | 5 | 2 | 5 | 5 | 5 | 2 | 5 | 5 | 5 | 5 | 5 | 4 |
| COC(=O)OC1C(C)=C(Cl)C(=O)N1c1cc(C(C)(C)C)on1 (stereo not shown) [A81] | 5 | 4 | 5 | 5 | 5 | 3 | 5 | 5 | 5 | 5 | 5 | 4 |
| CC1=C(Cl)C(=O)N(c2cc(C(C)(C)C)on2)C1OC(=O)SCC(C)C (stereo not shown) [A82] | 1 | 0 | 3 | 1 | 1 | 0 | – | – | 2 | 2 | 2 | 1 |
| C=COC(=O)OC1C(C)=C(Cl)C(=O)N1c1cc(C(C)(C)C)on1 (stereo not shown) [A83] | 5 | 4 | 5 | 5 | 5 | 4 | 5 | 5 | 5 | 5 | 5 | 4 |
